Tested on: neutrophils
Experiment: Neutrophil calcium flux assay (5-OXO-ETE-stimulated, Indo-1 fluorescence)
Type: cell-based
Conditions: 5-OXO-ETE-stimulated calcium flux
Procedure: After isolation, neutrophils were resuspended in PBS without calcium and Magnesium (PBS −/−) at a concentration of 5×10^6 cells/ml. 2ul of Indo-1 (1 mM) were added per ml of cells. After incubation at 37° C. for 30 minutes, cells were washed twice in PBS −/− and resuspended at 5×10^6 cells/ml in assay buffer (HBSS 1× with calcium and magnesium and […]). In a 96-well Black optical clear bottom plate 100 μL of neutrophil were dispensed to each well. After incubation at 37° C. for 5 minutes, 50 μL of assay buffer or 3× antagonist were added and incubated for 5 min in a Tecan Spark plate reader (Tecan, Morrisville, NC). Baseline was measured for 30 sec (wavelength setup: excitation: 331 nm and emission:410 nm). When baseline is stable, 50p of 5-OXO-ETE at 200 nM (4×) or HBSS was added to appropriate wells. Fluorescence was measured every 5 seconds for 30 cycles. Results are expressed as Net fluorescence (FLU minus Background and injection peak). All data were analyzed using GraphPad Prism version 9 for Windows (GraphPad, San Diego, CA).

| SMILES | IC50 (Neutrophil) [nM] | IC50 [nM] |
| --- | --- | --- |
| Cn1c(CCCCCCc2cccc(Cl)c2)c(C(=O)N2CC[C@H](C(=O)O)C2)c2cc(C#N)cnc21 [Compound I-338] | < 100 |  |
| C[C@@H](CC(=O)O)CC(=O)c1c(CCCCOCc2cccc(C#N)c2)n(C)c2ccncc12 [Compound I-397] | > 300 |  |
| CC(CC(=O)O)CC(=O)c1c(CCCCCC(O)c2cccc(C#N)c2)n(C)c2ncc(Cl)cc12 (single isomer, unassigned) [Compound I-308] |  | < 100 |
| C[C@H](CC(=O)N[C@@H](CCC(N)=O)C(=O)O)CC(=O)c1c(CCCCOCc2ccccc2)n(C)c2ncc(C#N)cc12 [Compound I-460] | > 300 |  |
| C[C@H](CC(=O)O)CC(=O)c1c(CCCOCCc2cccc(Cl)c2)n(C)c2ccc(Cl)cc12 [Compound I-61] | < 100 |  |
| Cn1c(CCCCCCc2cccc(Cl)c2)c(C(=O)N2CCC[C@H]2CC(=O)O)c2cc(Cl)ccc21 [Compound I-121] | > 300 |  |
| CC(CC(=O)O)CC(=O)c1c(CCCCCCc2cscn2)n(C)c2ncc(C#N)cc12 (stereo not drawn) [Compound I-373] | 100 to 300 |  |
| CC(C)[C@H](CC(=O)O)CC(=O)c1c(CCCCOCc2ccccc2)n(C)c2ncc(C#N)cc12 [Compound I-436] | > 300 |  |
| COc1cnc2c(c1)c(C(=O)CC(C)CC(=O)O)c(CCCCOCc1ccccc1)n2C (stereo not drawn) [Compound I-103] | > 300 |  |
| C[C@H](CC(=O)O)CC(=O)c1c(CCCCOCc2cccc(Cl)c2)[nH]c2ccc(C#N)cc12 [Compound I-382] | < 100 |  |
| CC(=O)N(C)c1cccc(C(O)CCCCCc2c(C(=O)CC(C)CC(=O)O)c3cc(C#N)cnc3n2C)c1 (stereo not drawn) [Compound I-313] | > 300 |  |
| COc1cccc(C(O)CCCCCc2c(C(=O)CC(C)CC(=O)O)c3cc(C#N)cnc3n2C)c1 (stereo not drawn) [Compound I-302] | < 100 |  |
| C[C@H](CC(=O)O)CC(=O)c1c(CCCCCCc2cnccn2)n(C)c2ccc(Cl)cc12 [Compound I-81] | 100 to 300 |  |
| CC(=O)Nc1cccc(COCCCCc2c(C(=O)CC(C)CC(=O)O)c3cc(C#N)cnc3n2C)c1 (stereo not drawn) [Compound I-298] | 100 to 300 |  |
| COc1cc(COCCCCc2c(C(=O)CC(C)CC(=O)O)c3cc(C#N)cnc3n2C)ccc1F (stereo not drawn) [Compound I-391] | < 100 |  |
| Cn1c(CCCCCCc2cccc(Cl)c2)c(C(=O)N2CC[C@@H](C(=O)O)C2)c2cc(Cl)ccc21 [Compound I-120] | 100 to 300 |  |
| C[C@H](CC(N)=O)CC(=O)c1c(CCCCOCc2cccc(Cl)c2)n(C)c2ncc(Cl)cc12 [Compound I-356] | > 300 |  |
| C[C@H](CC(=O)O)CC(=O)c1c(CCCCCOc2ncccn2)n(C)c2ccc(Cl)cc12 [Compound I-130] | > 300 |  |
| CC(CC(=O)O)CC(=O)c1c(CCCCCC(O)c2cccc(C#N)c2)n(C)c2ncc(Cl)cc12 (single isomer, unassigned) [Compound I-307] |  | < 100 |
| C[C@@H](CC(=O)O)CC(=O)c1c(CCCCOCc2cccc(Cl)c2)n(C)c2cnccc12 [Compound I-406] | > 300 |  |
| C[C@H](CC(=O)O)CC(=O)c1c(CCCCOCc2ccc(F)cc2)n(C)c2ncc(Cl)cc12 [Compound I-215] | > 300 |  |
| Cn1c(CCCCCCc2cccc(Cl)c2)c(C(=O)N2CC(C(=O)O)C2)c2cc(Cl)cnc21 [Compound I-153] | > 300 |  |
| CC(CC(=O)O)CC(=O)c1c(CCCCSCc2ccccc2)n(C)c2ncc(C#N)cc12 (stereo not drawn) [Compound I-426] | > 300 |  |
| CC(CC(=O)O)CC(=O)c1c(CCCCCCc2cccc(Cl)c2)n(C[C@@H](O)CO)c2ncc(C#N)cc12 (stereo partly drawn) [Compound I-284] | < 100 |  |
| C[C@@H](CC(=O)O)CC(=O)c1c(CCCCOCc2ccc(F)cc2)n(C)c2ncc(Cl)cc12 [Compound I-216] | > 300 |  |
| C[C@H](CC(=O)O)CC(=O)c1c(CCCCOCc2ccc(F)cc2)n(C)c2ncc(C#N)cc12 [Compound I-368] |  | 100 to 300 |

| SMILES | IC50 (Neutrophil) [nM] | IC50 [nM] |
| --- | --- | --- |
| CC(CC(=O)O)CC(=O)c1c2cc(C#N)cnc2n(C)c1[C@H]1CC[C@H](COCc2cccc(Cl)c2)CC1 (stereo partly drawn) [Compound I-401] | > 300 |  |
| CC(CC(=O)O)CC(=O)c1c(CCCCOCc2cc(F)cc(F)c2)n(C)c2ncc(C#N)cc12 (stereo not drawn) [Compound I-387] | 100 to 300 |  |
| C[C@@H](CC(=O)O)CC(=O)c1c(CCCCCOCc2ccccc2)n(C)c2ncc(C#N)cc12 [Compound I-423] | > 300 |  |
| Cn1c(CCCCCCc2cccc(Cl)c2)c(C(=O)N2CC(C(=O)O)C2)c2cc(Cl)ccc21 [Compound I-151] | 100 to 300 |  |
| Cn1c(CCCCCCC#CC2CC(F)(F)C2)c(C(=O)N2CC[C@H](c3nnn[nH]3)C2)c2cc(Cl)ccc21 [Compound I-353] | < 100 |  |
| Cn1c(CCCCOCc2cccc(Cl)c2)c(C(=O)N2CC[C@H](C(=O)O)C2)c2cnccc21 [Compound I-442] | > 300 |  |
| C[C@H](CC(=O)O)CC(=O)c1c(CCCCCNc2cnccn2)n(C)c2ccc(Cl)cc12 [Compound I-129] | > 300 |  |
| Cn1c(CCCCCNc2cccc(Cl)c2)c(C(=O)N2CC[C@H](C(=O)O)C2)c2cc(Cl)cnc21 [Compound I-148] | > 300 |  |
| C[C@H](CC(=O)O)CC(=O)c1c(CCCCCCc2cccnc2)n(C)c2ccc(Cl)cc12 [Compound I-53] | < 100 |  |
| C[C@H](CC(=O)O)CC(=O)c1c(CCOCC#Cc2cccnc2)n(C)c2ncc(Cl)cc12 [Compound I-228] | > 300 |  |
| Cn1c(CCCCOCc2cccc(Cl)c2)c(C(=O)N2CC[C@H](c3nnn[nH]3)C2)c2cc(C(F)(F)F)ccc21 [Compound I-188] | 100 to 300 |  |
| C[C@H](CC(=O)O)CC(=O)c1c(CCCCC[C@@H](O)c2cccc(Cl)c2)n(C)c2ncc(Cl)cc12 [Compound I-107] | < 100 |  |
| CC(CC(=O)O)CC(=O)c1c(CCCCCC(O)c2ccc(Cl)cc2)n(C)c2ncc(C#N)cc12 (stereo not drawn) [Compound I-310] | 100 to 300 |  |
| CC(CC(=O)O)CC(=O)n1c(CCCCCCc2cccc(Cl)c2)cc2ncc(Cl)cc21 (stereo not drawn) [Compound I-305] |  | < 100 |
| CC(CC(=O)O)CC(=O)c1c(CCCCCCc2cccc(Cl)c2)n(C[C@@H](O)CO)c2ncc(C(N)=O)cc12 (stereo partly drawn) [Compound I-283] | 100 to 300 |  |
| Cn1c(CCCCCCc2cccc(Cl)c2)c(C(=O)N2CC[C@H](C(=O)O)C2)c2cc(Cl)cnc21 [Compound I-147] | > 300 |  |
| C[C@H](CC(=O)O)CC(=O)c1c(CCCCCOCC#CC2CC(F)(F)C2)n(C)c2ccc(Cl)cc12 [Compound I-337] | < 100 |  |
| Cn1c(CCCCCCc2cccc(Cl)c2)c(C(=O)N2CC(CC(=O)O)C2)c2cc(Cl)ccc21 [Compound I-152] | > 300 |  |
| C[C@H](CC(=O)O)CC(=O)c1c(CCCCOCc2cccc(C#N)c2)n(C)c2cnc(Cl)cc12 [Compound I-404] | < 100 |  |
| C[C@H](CC(=O)O)CC(=O)c1c(CCCCOCc2cccc(C#N)c2)n(C)c2cnccc12 [Compound I-394] | < 100 |  |
| C[C@H](CC(=O)O)CC(=O)c1c(CCCCCCC#CC2COC2)n(C)c2ccc(Cl)cc12 [Compound I-332] | < 100 |  |
| CC(CC(=O)O)CC(=O)c1c(CCCCOCCc2ccccc2)n(C)c2ncc(C#N)cc12 (stereo not drawn) [Compound I-424] | > 300 |  |
| C[C@H](CC(=O)O)CC(=O)c1c(CCCCCCc2ccncc2)n(C)c2ccc(Cl)cc12 [Compound I-55] | < 100 |  |
| C[C@@H](CC(=O)O)CC(=O)c1c(CCCCOCc2cccc(OC(F)(F)F)c2)n(C)c2cnccc12 [Compound I-409] | > 300 |  |
| Cn1c(CCCCCCC#CC2CC(F)(F)C2)c(C(=O)N2CC[C@H](C(=O)N[C@@H](CCC(N)=O)C(=O)O)C2)c2cc(C#N)cnc21 [Compound I-463] | > 300 |  |

— US20250154145A1, “OXER1 ANTAGONISTS AND USES THEREOF” (Fairhaven Pharmaceuticals Ins., priority 2021, published 2025)
